Literature values in publication PMC5766568, “Effective photo-enhancement of cellular activity of fluorophore-octaarginine antisense PNA conjugates correlates with singlet oxygen formation, endosomal escape and chromophore lipophilicity” (Scientific Reports, 2018).
Like-named read-outs stand apart in the source and are kept apart here.

From the text: This could be due to a low quantum yield for singlet oxygen formation, which unfortunately is not available.

log P (octanol/water)	Compound	log P (octanol/water) (fluorophore alone)
	CN(C)c1ccc2c(-c3ccccc3C(=O)[O-])c3ccc(N(C)C)cc3[o+]c2c1 [TMR fluorophore, Tetramethylrhodamine]	2.92
−1.44	N=c1ccc2c(-c3ccc(C(=O)O)cc3C(=O)O)c3ccc(N)c(S(=O)(=O)O)c3oc-2c1S(=O)(=O)O [AF488, Alexa Fluor 488]	
